Test results as given in US20250002470A1, “NITROGEN-CONTAINING COMPOUND, PREPARATION METHOD THEREFOR AND APPLICATION THEREOF” (ZHEJIANG AIXPLORER BIOTECH CO., LTD., priority 2021, published 2025).

How the values were obtained:
[1] = In vivo pharmacokinetic evaluation in mice (IV and PO); settings: CD-1 mice
Method: CD-1 mice, after fasting overnight (free drinking), are divided into tail vein (IV) and gavage administration (PO) groups. The tail vein administration group collected 0.1 mL of blood from the orbital venous plexus before administration and 5 minutes, 15 minutes, 0.5 hours, 1 hour, 2 hours, 4 hours, 8 hours, 12 hours, and 24 hours after administration, and sample centrifugation at 4° C. for 5 minutes, and stored at −70° C. for testing. […] The plasma parent drug concentration was determined by LC-MS/MS.

IL-1β = experiment: Inflammatory factor IL-1β in serum and colon, DSS-induced acute enteritis mouse model; format: in vivo, C57BL/6 mice; settings: 50 mpk, BID
Method: Grouping and modeling: One day before the start of the experiment, all C57BL/6 mice were ear-labeled and recorded, and the animals with appropriate weight and normal status were selected for grouping (Sham group, vehicle group and embodiment 33 group). 10 animals per group; 3.5% dextran sulfate sodium salt (DSS, MP, molecular weight 36000-50000) prepared with sterile water is loaded into the drinking bottle in the vehicle and the 33 testing groups of rearing cages in the embodiment (100 mL per cage, replace the 3.5% DSS solution after 2-3 days with freshly prepared solution), and the animals in the vehicle and the 33 testing groups of the embodiment are free to drink for 10 consecutive days. The Sham group drank the normal water not containing DSS. Embodiment 33 compound is administered orally BID.
4) Detection of inflammatory factors: Blood was collected from all animals under their jaws, and serum was separated; serum and colon tissue IL-10 and IL-18 cytokines were detected according to the detection method in the Effect Embodiment 4.

IL-18 = IL-18 cytokine in LPS-induced sepsis mouse model; format: in vivo, C57BL/6J mice; settings: for IL-18: given 30 minutes before LPS (10 mg/kg i.p.), serum 2 hours after LPS
Method: The purpose of this study was to investigate and evaluate the inhibitory effect of the test compound on […] and IL-18 cytokine production in a mouse model of lipopolysaccharide (LPS)-induced sepsis.
6-8 weeks female C57BL/6J mice, randomized, 5 animals in the Naïve group, and the rest of the groups (vehicle group, 15 mg/kg group with embodiment 33 compound, 50 mg/kg group with embodiment 33 compound and 150 mg/kg group with embodiment 33 compound, wherein 15 mg/kg, 50 mg/kg and 150 mg/kg is the dosage of embodiment 33, mg/kg is referred to as mpk) 10 animals per group. Among them, the Naïve group was not stimulated with LPS, and the 10 mice in each group were intraperitoneally injected with LPS (10 mg/kg) to induce sepsis model in the mouse. The vehicle (corresponding to the vehicle group) and the test compound (corresponding to the 15mpk group of Example 33, the 50mpk group of Example 33 and the 150mpk group of Example 33 respectively) were administered 30 minutes before LPS stimulation. 2 hours after LPS stimulation, the mice were euthanized, and whole blood was collected from the heart and placed in EP tubes, left to stand at room temperature for 1 hour, and centrifuged at 8000 rpm for 10 minutes to collect serum for measurement of cytokines IL-10 and IL-18.
After the kit is taken out of the refrigerator, it should be equilibrated at room temperature (25-28° C.) for 20 minutes; the remaining reagents should be stored at 4° C. immediately after each test.
Prepare an appropriate amount of standard diluent: dilute the standard diluent (5×) to 1× with double-distilled or deionized water. For example, add 10 mL of standard diluent (5×) to 40 mL of water and mix well to obtain a 1× standard. Diluent.
Prepare an appropriate amount of washing liquid: Dilute the washing liquid (20×) with double-distilled or deionized water to 1×. For example, add 10 mL of washing liquid (20×) to 190 mL of water and mix well to obtain a 1×washing liquid.
Standard preparation: Add the standard diluent to one bottle of standard according to the volume (0.5 mL) marked on the standard label, incubate at room temperature for 15 minutes, then mix gently and pipet several times with a pipette to completely dissolve the standard. The final concentration of the standard reaches 1500 pg/mL. Take […] 1.5 mL centrifuge tubes, add 250 μL of standard diluent to each tube in advance, and perform dilutions of the standard to obtain a total of 1500, 750, 375, 187.5, 93.75, 46.875, and 23.4375 pg/mL. standard concentration, and finally add the diluted standard to the pre-coated plate wells in sequence, and add the standard diluent directly as a concentration of 0 pg/mL, for a total of 8 standard concentrations. […]

Cc1nc(N[C@@H]2CCCC[C@H]2O)nnc1-c1ccc(C(F)(F)F)cc1O [Embodiment 33]
F ([1]; PO, 20 mg/kg): 98.0%
AUC ([1]; mouse, plasma, IV, 3 mg/kg): 4600 ng·h/mL
clearance ([1]; mouse, plasma, IV, 3 mg/kg): 10.9 mL/min/kg
half-life ([1]; mouse, plasma, IV, 3 mg/kg): 4.89 h
Vd ([1]; mouse, plasma, IV, 3 mg/kg, read-out: Vss): 2.6 L/kg
AUC ([1]; mouse, plasma, PO, 20 mg/kg): 30000 ng·h/mL
Cmax ([1]; mouse, plasma, PO, 20 mg/kg): 8520 ng/mL
half-life ([1]; mouse, plasma, PO, 20 mg/kg): 3.6 h
IL-1β in serum (IL-1β): 290.3 ± 30.65
IL-1β in the colon (IL-1β): 6.018 ± 0.9675
IL-18 (IL-18; 15 mpk): 560.5 ± 46.39
IL-18 (IL-18; 50 mpk): 320.1 ± 29.69
IL-18 (IL-18; 150 mpk): 216.2 ± 9.238
inhibitory effect on IL-18 compared with the Vehicle group (IL-18; two doses of 50 mg/kg and 150 mg/kg): significant inhibitory effect
